Values quoted from earlier work, collected in patent US5204349A, “Amide-substituted derivatives of spiroindanylcamphorsulfonyl oxytocin antagonists” (priority 1991, dated 1993).
Like-named read-outs stand apart in the source and are kept apart here.

Key:
[1] = compared with ritodrine
[2] = tocolytic use, mother and infant

## CCO [Ethanol]
[1]
  effectiveness in preventing premature labor: as effective as ritodrine in preventing premature labor
  reduction in the incidence of fetal respiratory distress: does not produce a corresponding reduction in the incidence of fetal respiratory distress that administration of ritodrine does

## O=S(=O)([O-])[O-].[Mg+2] [Magnesium sulfate]
Plasma concentrations above 4 to 8 mg/dL
  adverse effects at plasma concentrations above the therapeutic range: can cause inhibition of cardiac conduction and neuromuscular transmission, respiratory depression and cardiac arrest

## CC(NCCc1ccc(O)cc1)C(O)c1ccc(O)cc1 (stereo not drawn) [Ritodrine]
[2]
  side effects: causes a number of cardiovascular and metabolic side effects in the mother, including tachycardia, increased renin secretion, hyperglycemia (and reactive hypoglycemia in the infant)

## CC(C)(C)NCC(O)c1ccc(O)c(CO)c1 (stereo not drawn) [albuterol]
In vivo
  side effects: side effects similar to those of ritodrine

## CC(C)(C)NCC(O)c1cc(O)cc(O)c1 (stereo not drawn) [terbutaline]
[2]
  side effects: side effects similar to those of ritodrine
